# Columns and labels:
# mouse skin [1] = conditions: cited from earlier work; for contact sensitization in a mouse skin model (mast cell degranulating agents): in vivo
# mouse skin [2] = conditions: cited from earlier work
# [3] = Rosmarinic acid 5%; cited from earlier work
# [4] = DPPH* free-radical scavenging anti-oxidant assay; conditions: absorbance at 595 nm, after 30 minutes of incubation at 25° C.; read-out: molar activity (EC50, concentration that lowers the zero time optical absorbance of DPPH by 50 percent)
# Experimental: Solutions of test compounds were assayed for their antioxidant activity by the free-radical scavenging method that uses diphenylpicryl hydrazine (DPPH*) reagent as described previously (Bonina et al, 2003). In order to standardize the activity, we defined for each compound, an EC50 value as the concentration that lowers the zero time optical absorbance of DPPH at 595 nm by 50 percent measured after 30 minutes of incubation at 25° C.
# [5] = system: volar arm skin of volunteers; assay: 24-hour occlusive patch (Finn chamber) anti-irritant test with 0.5% benzalkonium chloride carrier gels; type: in vivo, human
# Experimental: Occlusive patch testing was conducted on extracts prepared by starch gel encapsulation in a oil-in water emulsion system previously described (Wille, 2003).
# Anti-irritant assays: All carrier system gels were prepared with 0.5% benzalkonium chloride, a mild irritant. To test for anti-irritancy, the irritant-containing carrier gels were also loaded with the test botanical extracts (experimentals). The control and test gels were deposited (100 microliters) on 10 mm square circular filter paper discs and placed in side of Finn chambers (20 mm square), which were then applied to the volar arm skin of volunteers. The chambers were affixed to skin with non-allergic adhesive tape and left in place for 24 hours. Upon termination of the treatments, the chambers were removed and the skin gently wiped clean with moistened cotton swabs. The exposed skin was first examined for signs of erythema (redness) and induration (swelling), and skin sites photographed. The exposed skin sites were probed for skin capacitance (skin moisture levels) using a Corneometer instrument (Courage & Khazaka, Koln, Germany).
# HaCat keratinocytes = assay: Retinoid-stimulated autocrine clonal growth of HaCat keratinocytes (biochemical assay for anti-irritant activity); type: cell-based, human; conditions: 10 μM, 48 hours after treatment, retinoid-stimulated autocrine growth conditions
# Experimental: Since retinoids irritate skin leading to epidermal hyperplasia, we have employed an in vitro cell culture method to detect antioxidants that act to inhibit retinoid-stimulated autocrine growth of human keratinocytes.
# Method: An immortalized line of human epidermal kertatinocytes, HaCat keratinocytes, can be cultured in a serum-free culture medium. Sterile Petri dishes (35 mm^2) are seeded at 5,000 cells per cm^2 and placed in a humidifed CO2 incubator at 37° C. for 3-5 days or until the culture reaches about 30% confluent monolayer growth. The dishes are washed once with ice-cold serum-free media lacking EGF and insulin, and refed 2.5 ml of serum-free culture medium containing 5 ug/ml insulin and retinyl acetate (RA, 3×10^−8 M). Duplicate control dishes are fixed and stained with 0.2% crystal violet to record the amount of clonal growth prior to refeeding with fresh RA-containing medium. Test dishes refed RA and insulin are split into three groups in duplicate. Group A is refed on the RA plus insulin medium. Group B is refed RA plus insulin medium and a […] inhibitor (PD 153035), and Group C is refed medium containing RA plus insulin and from 0.1 to 5% of a hydroalcoholic botanical extract. All dishes are adjusted to have the same final concentration of alcohol (1%). All dishes are placed back in the incubator for 2 and 4 days. They are fixed and stained with 0.2% crystal violet. […]
compound,measurement,setting,value
C=C(CC)C(=O)c1ccc(OCC(=O)O)c(Cl)c1Cl [Ethacrynic acid],"prevention of contact sensitization due to Clonidine, Chlorpheniramine, Albuterol and Nadolol",mouse skin [1]; delivery of the sensitizing drugs to mouse skin,effective
same,"prevention of skin irritation due to 2,4-dinitro-chlorobenzene, arachidonic acid, phorbol myristic acid, trans-retinoic acid and lactic acid",mouse skin [2]; topical application to mouse,effective
O=C(O)COc1ccccc1 [Phenoxyacetic acid],contact sensitization due to para-phenylenediamine,mouse skin [1]; application of the hair dye to mouse skin,prevent contact sensitization
same,skin irritation due to a panel of known skin irritants including sodium lauryl sulfate,"mouse skin [2]; mouse, in vivo",block skin irritation
O=C(/C=C/c1ccc(O)c(O)c1)O[C@H](Cc1ccc(O)c(O)c1)C(=O)O [Rosmarinic acid],reduction of the irritating action of alpha-hydroxy acids (lactic and glycolic acids),[3],over three-fold
COc1ccc(CCN(C)CCCC(C#N)(c2ccc(OC)c(OC)c2)C(C)C)cc1OC (stereo not shown) [Verapamil],minimizing contact sensitization due to Nadolol,mouse skin [1]; topical application of Nadolol to mouse skin,effective
O=C1O[C@H]([C@@H](O)CO)C(O)=C1O [ascorbic acid],EC50,[4],26 µM
CCCCCCCCCCCCCCCC(=O)OC[C@H](O)[C@H]1OC(=O)C(O)=C1O [ascorbyl palmitate],EC50,[4],30 µM
COc1cc(CNC(=O)CCCC/C=C/C(C)C)ccc1O [capsaicin],contact sensitization in a mouse skin model (mast cell degranulating agents),mouse skin [1],prevent contact sensitization
O=C(O)/C=C\c1c[nH]cn1 [cis-urocanic acid],contact sensitization in a mouse skin model (mast cell degranulating agents),mouse skin [1],prevent contact sensitization
"O=C(O)c1cc(O)c(O)c(O)c1 [gallic acid, 3,4,5-trihydroxybenzoic acid]",effect on benzalkonium chloride induced skin irritation,[5]; 24 hour occlusion,anti-irritant effect
same,irritancy to skin,"[5]; gallic acid alone, 24 hours of occlusion",not irritating to skin
same,skin hydration profile,"[5]; gallic acid alone, after 24 hours of occlusion",does not alter skin hydration profile
O.O.O=c1c(O)c(-c2ccc(O)c(O)c2)oc2cc(O)cc(O)c12 [quercetin dihydrate],EC50,[4],86 µM
same,clonal growth relative to the untreated control,HaCat keratinocytes,completely inhibited
"Cc1c(C)c2c(c(C)c1O)CC[C@@](C)(CCC[C@H](C)CCC[C@H](C)CCCC(C)C)O2 [vitamin E, alpha-tocopherol]",EC50,[4],46 µM
